Series [1] can be described thus: clinical. The conditions noted are these: human, in vivo, iv.
The nature of series [2]: clinical. As to conditions: human, in vivo, iv. The source holds these as a separate data set.
Series [3] can be described thus: clinical. As to conditions: human, in vivo, iv, Vdss.
Series [4] is described as follows: clinical. As to conditions: human, in vivo, iv, CL.
Series [5] is described as follows: clinical. The conditions noted are these: human, in vivo, iv, t1/2.

As for `C/C=C/C[C@@H](C)C(=O)[C@H]1C(=O)N[C@@H](C(C)C)C(=O)N(C)CC(=O)N(C)[C@@H](CC(C)C)C(=O)N[C@@H](C(C)C)C(=O)N(C)[C@@H](CC(C)C)C(=O)N[C@@H](C)C(=O)N[C@H](C)C(=O)N(C)[C@@H](CC(C)C)C(=O)N(C)[C@@H](CC(C)C)C(=O)N(C)[C@@H](C(C)C)C(=O)N1C` [VALSPODAR], the MRT in “clinical [1]” came out at 12 h. For the same molecule, the fraction unbound in “clinical [2]” was 0.022. The volume of distribution (Vd) in the series “clinical [3]” amounted to 1.8 L/kg. This molecule registered a clearance in “clinical [4]” of 2.6 mL/min/kg. The molecule further gave a half-life in the series “clinical [5]” of 600 min.
On to `CSc1ccc(C(=O)c2[nH]c(=O)[nH]c2C)cc1` [ENOXIMONE], for which the mean residence time (MRT) in “clinical [1]” came out at 1 h. In addition, in “clinical [2]”, the free fraction (fraction unbound) stood at 0.3. In the series “clinical [3]”, the Vd was 1.8 L/kg. The molecule also had a clearance in the series “clinical [4]” of 29 mL/min/kg. In “clinical [5]”, this molecule showed a half-life of 60 min.
Taken in the same sequence, the figures for `CC(CN(C)C)CN1c2ccccc2CCc2ccccc21` (stereo not given) [TRIMIPRAMINE] were 17 h, 0.051, 16 L/kg, 16 mL/min/kg and 1380 min.
In the same order, the values of `CCOc1ccc2ccccc2c1C(=O)N[C@@H]1C(=O)N2[C@@H]1SC(C)(C)[C@@H]2C(=O)O` [NAFCILLIN] are 1.1 h, 0.13, 0.22 L/kg, 3.3 mL/min/kg and 42 min.
In the same order, the values of `COc1ccc(CCNCC(O)COc2cccc(C)c2)cc1OC` (stereo not given) [BEVANTOLOL] are 2 h, 0.015, 0.67 L/kg, 5.5 mL/min/kg and 114 min.
`O=C([O-])[O-].[Li+].[Li+]` [LITHIUM CARBONATE] showed an MRT in the series “clinical [1]” of 7.9 h. Besides, in the series “clinical [2]”, the fraction unbound amounted to 1. Moreover, the volume of distribution (Vd) in “clinical [3]” was 0.62 L/kg. This molecule also came in with a clearance in the series “clinical [4]” of 1.3 mL/min/kg. In “clinical [5]”, this molecule gave a half-life of 468 min.
Taken in the same sequence, the figures for `C=CCC1(C(C)C#CCC)C(=O)N=C(O)N(C)C1=O` (stereo not given) [METHOHEXITAL] were 1.5 h, 0.27, 1.1 L/kg, 12 mL/min/kg and 96 min.
Taken in the same sequence, the figures for `COCC(=O)Nc1c(I)c(C(=O)NCC(O)CO)c(I)c(C(=O)N(C)CC(O)CO)c1I` (stereo not given) [IOPROMIDE] were 2.6 h, 0.99, 0.22 L/kg, 1.4 mL/min/kg and 156 min.
In the same order, the values of `CCCCCN(C)CCC(O)(P(=O)(O)O)P(=O)(O)O` [IBANDRONIC ACID] are 5.1 h, 0.15, 0.55 L/kg, 1.8 mL/min/kg and 840 min.
In “clinical [1]”, `CCCCCc1cc(O)c2c(c1)OC(C)(C)[C@@H]1CCC(C)=C[C@@H]21` [DRONABINOL] gave an MRT of 46 h. The unbound share (fraction unbound) in “clinical [2]” was 0.05. Besides, in “clinical [3]”, the Vd stood at 8.9 L/kg. The same molecule registered a clearance in “clinical [4]” of 3.2 mL/min/kg. The same molecule had a half-life in the series “clinical [5]” of 1980 min.
In the series “clinical [1]”, `NCCCCCC(=O)O` [AMINOCAPROIC ACID] displayed a mean residence time (MRT) of 2.6 h. The same molecule displayed a fraction unbound in the series “clinical [2]” of 0.92. In addition, the Vd in the series “clinical [3]” turned out to be 0.39 L/kg. Further, in the series “clinical [4]”, the clearance is 2.5 mL/min/kg. This molecule had a half-life in the series “clinical [5]” of 294 min.
Taken in the same sequence, the figures for `COc1ccc(C[C@@H]2c3cc(OC)c(OC)cc3CC[N@+]2(C)CCC(=O)OCCCCCOC(=O)CC[N@@+]2(C)CCc3cc(OC)c(OC)cc3[C@H]2Cc2ccc(OC)c(OC)c2)cc1OC` were 0.43 h, 0.62, 0.14 L/kg, 5.4 mL/min/kg and 25.2 min.
In the same order, the values of `CC(NCCc1ccc(O)cc1)C(O)c1ccc(O)cc1` (stereo not given) [RITODRINE] are 2.4 h, 0.64, 4.4 L/kg, 31 mL/min/kg and 156 min.
In the same order, the values of `NCC[C@H](O)C(=O)N[C@@H]1C[C@H](N)[C@@H](O[C@H]2O[C@H](CN)[C@@H](O)[C@H](O)[C@H]2O)[C@H](O)[C@H]1O[C@H]1O[C@H](CO)[C@@H](O)[C@H](N)[C@H]1O` [AMIKACIN] are 2.4 h, 0.88, 0.16 L/kg, 1.1 mL/min/kg and 144 min.
The molecule `C#C[C@]1(O)CC[C@H]2[C@@H]3CCc4cc(OS(=O)(=O)O)ccc4[C@H]3CC[C@@]21C` came in with a mean residence time (MRT) in the series “clinical [1]” of 8.2 h. The molecule also had an unbound share (fraction unbound) in the series “clinical [2]” of 0.011. In “clinical [3]”, the Vd stood at 2.3 L/kg. In the series “clinical [4]”, this molecule gave a clearance of 4.7 mL/min/kg. Besides, the half-life in “clinical [5]” was 504 min.
In the same order, the values of `CCCCC/C=C\CCC(=O)N[C@H]1[C@H](Oc2c3cc4cc2Oc2ccc(cc2Cl)[C@@H](O[C@@H]2O[C@H](CO)[C@@H](O)[C@H](O)[C@H]2NC(C)=O)[C@@H]2NC(=O)[C@H](NC(=O)[C@@H]4NC(=O)[C@H]4NC(=O)[C@@H](Cc5ccc(c(Cl)c5)O3)NC(=O)[C@H](N)c3ccc(O)c(c3)Oc3cc(O)cc4c3)c3ccc(O)c(c3)-c3c(O[C@H]4O[C@H](CO)[C@@H](O)[C@H](O)[C@@H]4O)cc(O)cc3[C@@H](C(=O)O)NC2=O)O[C@H](CO)[C@@H](O)[C@@H]1O` [TEICOPLANIN A2-1] are 140 h, 0.11, 1.5 L/kg, 0.2 mL/min/kg and 9000 min.
In the same order, the values of `CN1CC[C@H](c2c(O)cc(O)c3c(=O)cc(-c4ccccc4Cl)oc23)[C@H](O)C1` [ALVOCIDIB] are 4 h, 0.06, 1.5 L/kg, 6.1 mL/min/kg and 312 min.
Taken in the same sequence, the figures for `O=P(O)(O)OC(Cn1cncn1)(Cn1cncn1)c1ccc(F)cc1F` [FOSFLUCONAZOLE] were 2 h, 0.042, 0.15 L/kg, 1.3 mL/min/kg and 126 min.
`CCN(CC)CCNC(=O)c1cc(Br)c(N)cc1OC` [BROMOPRIDE] displayed an MRT in the series “clinical [1]” of 4 h. The unbound share (fraction unbound) in “clinical [2]” was determined as 0.6. The volume of distribution (Vd) in “clinical [3]” is 3.1 L/kg. In addition, in “clinical [4]”, the clearance was 13 mL/min/kg. The molecule further showed a half-life in the series “clinical [5]” of 174 min.
In the same order, the values of `CN1CCN(CCCCN2C(=O)CN(/N=C/c3ccc(-c4ccc(Cl)cc4)o3)C2=O)CC1` [AZIMILIDE] are 100 h, 0.06, 13 L/kg, 2.4 mL/min/kg and 4740 min.
Molecule `C[C@H](Cn1cnc2c(N)ncnc21)OCP(=O)(O)O` [TENOFOVIR ANHYDROUS] showed a mean residence time (MRT) in the series “clinical [1]” of 3.8 h. The molecule also gave a free fraction (fraction unbound) in “clinical [2]” of 0.93. For the same molecule, the volume of distribution (Vd) in “clinical [3]” worked out at 0.83 L/kg. Further, the clearance in “clinical [4]” was found to be 3.1 mL/min/kg. In addition, the half-life in “clinical [5]” is 348 min.
Molecule `CN(C)CCc1c[nH]c2ccc(CS(=O)(=O)N3CCCC3)cc12` [ALMOTRIPTAN] registered an MRT in the series “clinical [1]” of 4.2 h. The same molecule showed an unbound share (fraction unbound) in the series “clinical [2]” of 0.6. Further, the Vd in the series “clinical [3]” worked out at 2.2 L/kg. The same molecule gave a clearance in the series “clinical [4]” of 8.9 mL/min/kg. Moreover, the half-life in the series “clinical [5]” is 204 min.
Taken in the same sequence, the figures for `NC(=O)OC[C@@H]1[C@H](NC(=O)/C(=N\OCC(=O)O)c2csc(N)n2)C(=O)N1S(=O)(=O)O` [CARUMONAM] were 2 h, 0.72, 0.18 L/kg, 1.5 mL/min/kg and 96 min.
Taken in the same sequence, the figures for `O=C1OC2(c3ccc(O)cc3Oc3cc(O)ccc32)c2ccccc21` [FLUORESCEIN] were 1.8 h, 0.11, 0.14 L/kg, 1.3 mL/min/kg and 96 min.
In the same order, the values of `Nc1ccn([C@@H]2O[C@H](CO)[C@@H](O)C2(F)F)c(=O)n1` [GEMCITABINE] are 0.81 h, 1, 1.5 L/kg, 32 mL/min/kg and 60 min.
On to `C[C@@H](O)[C@H]1C(=O)N2C(C(=O)O)=C(S[C@H]3C[C@@H](C(=O)N4CC[C@H](NC(=O)CNC(=N)N)C4)N(C)C3)[C@H](C)[C@H]12` [TOMOPENEM], for which the MRT in the series “clinical [1]” is 2 h. The molecule further had a fraction unbound in the series “clinical [2]” of 0.91. Also, in “clinical [3]”, the Vd is 0.23 L/kg. Besides, the clearance in the series “clinical [4]” came out at 1.9 mL/min/kg. The half-life in “clinical [5]” was 102 min.
Taken in the same sequence, the figures for `CO/N=C(\C(=O)N[C@@H]1C(=O)N2C(C(=O)O)=C(CSc3nc(C)c(CC(=O)O)s3)CS[C@H]12)c1csc(N)n1` [CEFODIZIME] were 1.5 h, 0.18, 0.054 L/kg, 0.61 mL/min/kg and 252 min.
In “clinical [1]”, `NCc1ccccc1CC(=O)N[C@@H]1C(=O)N2C(C(=O)O)=C(CSc3nnnn3CC(=O)O)CS[C@H]12` [CEFORANIDE] came in with an MRT of 4.3 h. In “clinical [2]”, the unbound share (fraction unbound) was found to be 0.19. This molecule also yielded a Vd in the series “clinical [3]” of 0.17 L/kg. In addition, the clearance in “clinical [4]” came out at 0.66 mL/min/kg. This molecule also showed a half-life in “clinical [5]” of 180 min.
In the same order, the values of `CNC1(c2ccccc2Cl)CCCCC1=O` (stereo not given) [KETAMINE] are 2.5 h, 0.47, 2.9 L/kg, 19 mL/min/kg and 168 min.
Taken in the same sequence, the figures for `C[C@@H](O)[C@H]1C(=O)N2C(C(=O)[O-])=C(SC3Cn4cnc[n+]4C3)[C@H](C)[C@H]12` (stereo not given in full) [BIAPENEM] were 1.3 h, 0.92, 0.2 L/kg, 2.5 mL/min/kg and 66 min.
Taken in the same sequence, the figures for `CC(=O)OCC1=C(C(=O)O)N2C(=O)[C@@H](NC(=O)Cc3cccs3)[C@H]2SC1` [CEPHALOTHIN] were 0.65 h, 0.22, 0.07 L/kg, 1.8 mL/min/kg and 57 min.
